Assay results taken from publication PMC9833666, “Designing and identifying β-hairpin peptide macrocycles with antibiotic potential” (Science Advances, 2023).
Where two headings read alike, the source gives them in different places. Bridge positions count the residues as written; N and C are the ends. Peptide text beside a SMILES is read from it.

Tests used:
[1] = tested on: Acinetobacter baumannii AB5075; details: for AB5075 MIC FBS: 100% fetal bovine serum; for AB5075 MIC MH: Mueller-Hinton
Method: MICs were performed by a modifiedClinical and Laboratory Standards Institute) procedure. […] Separately, E. coli W3110 or A. baumannii AB5075 was grown overnight in 5 ml of standard MH at 37°C. Cells from these cultures were diluted to a concentration of 5 × 10^5 to 6 × 10^5 cells/ml in either standard MH, MHII, RPMI, or fetal bovine serum, and 90 μl was added to each well of the 96-well plate containing diluted peptide. Plates were wrapped twice in parafilm and incubated at 37°C for 18 to 24 hours. Wells were examined by eye against wells with no bacteria for signs of growth. MICs were reported as the minimum concentration with no observable growth. In cases where triplicate samples differed, the concentration supported by the median of the three replicates was reported. […]
For consistency, all SynCH peptides were resuspended at 10 mg/ml in water. Peptides were then visually inspected for any lack of solubility (Data File S1). […]
We had this library commercially synthesized and tested its ability to inhibit the growth of Acinetobacter baumannii AB5075, a clinically isolated Carbapenem Resistant Acinetobacter (CRA) pathogen. MICs were performed in MH as well as 100% FBS, which is likely more representative of the in vivo environment. […]

[2] = tested on: Single-donor human red blood cells; assay: Hemolysis assay; type: cell-based; details: hemolysis at 128 µg/ml, fold change relative to SySA-5
In short: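 Peptides at 300 μg/ml (SySA library) or 128 μg/ml (SySA-5 optimization library) were incubated in triplicate with washed single-donor RBCs (1 × 10^9 cells/ml) for 3 h at 37 °C. Supernatant A540 was background-normalized to PBS and expressed relative to 1% Triton X-100 (100% hemolysis).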

| Compound | AB5075 MIC FBS ([1]; replicate 1) [µg/mL] | AB5075 MIC FBS ([1]; replicate 2) [µg/mL] | AB5075 MIC FBS ([1]; replicate 3) [µg/mL] | AB5075 MIC MH ([1]; replicate 1) [µg/mL] | AB5075 MIC MH ([1]; replicate 2) [µg/mL] | AB5075 MIC MH ([1]; replicate 3) [µg/mL] | Fold Change Hemolysis [2] | AB5075 MIC FBS ([1]; median of triplicate) [µg/mL] | AB5075 MIC MH ([1]; median of triplicate) [µg/mL] |
| --- | --- | --- | --- | --- | --- | --- | --- | --- | --- |
| CC(C)C[C@@H]1NC(=O)[C@H](CO)NC(=O)[C@H](C(C)C)NC(=O)[C@@H]2CSSC[C@H](NC(=O)[C@H](CC(C)C)NC(=O)[C@H](CCCNC(=N)N)NC(=O)[C@H](C(C)C)NC(=O)[C@H](CCCNC(=N)N)NC(=O)[C@H](CC(C)C)NC(=O)[C@@H](N)CSSC[C@@H](C(=O)O)NC(=O)[C@H](C(C)C)NC(=O)[C@H](CCCNC(=N)N)NC1=O)C(=O)N[C@@H](CCCNC(=N)N)C(=O)N[C@@H](CCCNC(=N)N)C(=O)N[C@@H](CCCNC(=N)N)C(=O)N2 [SySA-5.21] (H-CLRVRLCRRRCVSLRVC-OH; disulfide 1-17, 7-11 (inferred); N-terminus and C-terminus assumed) | 128 | >128 | >128 | 16 | 16 | 32 | 2.4 | – | – |
| CC(C)C[C@@H]1NC(=O)[C@H](CO)NC(=O)[C@H](C(C)C)NC(=O)[C@H](CCCCN)NC(=O)[C@H](C(C)C)NC(=O)[C@@H]2CSSC[C@H](NC(=O)[C@H](CC(C)C)NC(=O)[C@H](CCCNC(=N)N)NC(=O)[C@H](C(C)C)NC(=O)[C@H](CCCNC(=N)N)NC(=O)[C@@H](N)CSSC[C@@H](C(=O)O)NC(=O)[C@H](CCCNC(=N)N)NC1=O)C(=O)N[C@@H](CC(N)=O)C(=O)N[C@@H](CCCNC(=N)N)C(=O)N[C@@H](CCCNC(=N)N)C(=O)N[C@@H](CCCNC(=N)N)C(=O)N2 [SySA-5.8] (H-CRVRLCNRRRCVKVSLRC-OH; disulfide 1-18, 6-11 (inferred); N-terminus and C-terminus assumed) | >128 | >128 | >128 | 8 | 8 | 8 | 0.8 | – | – |
| CC(C)C[C@@H]1NC(=O)[C@H](CCCNC(=N)N)NC(=O)[C@@H]2CSSC[C@H](NC(=O)[C@H](CCCNC(=N)N)NC(=O)[C@H](C(C)C)NC(=O)[C@H](CCCNC(=N)N)NC(=O)[C@@H](N)CSSC[C@@H](C(=O)O)NC(=O)[C@H](CCCNC(=N)N)NC1=O)C(=O)N[C@@H](CCCNC(=N)N)C(=O)N[C@@H](CCCNC(=N)N)C(=O)N[C@@H](CCCNC(=N)N)C(=O)N[C@@H](CCCNC(=N)N)C(=O)N[C@@H](CCCNC(=N)N)C(=O)N[C@@H](CCCCN)C(=O)N2 [SySA-5.27] (H-CRVRCRRRRRKCRLRC-OH; disulfide 1-16, 5-12 (inferred); N-terminus and C-terminus assumed) | >128 | >128 | >128 | 128 | 128 | 128 | 0.6 | – | – |
| CC(C)C[C@@H]1NC(=O)[C@H](CCCNC(=N)N)NC(=O)[C@H](C(C)C)NC(=O)[C@H](CCCNC(=N)N)NC(=O)[C@H](CC(C)C)NC(=O)[C@@H](N)CSSC[C@@H](C(=O)O)NC(=O)[C@H](C(C)C)NC(=O)[C@H](CCCNC(=N)N)NC(=O)[C@H](CC(C)C)NC(=O)[C@H](CCCNC(=N)N)NC(=O)[C@H](C(C)C)NC(=O)[C@H](CCCCN)NC(=O)[C@H](C(C)C)NC(=O)[C@@H]2CSSC[C@H](NC1=O)C(=O)N[C@@H](CCCNC(=N)N)C(=O)N[C@@H](CCCNC(=N)N)C(=O)N[C@@H](CCCNC(=N)N)C(=O)N[C@@H](CCCNC(=N)N)C(=O)N2 [SySA-5.4] (H-CLRVRLCRRRRCVKVRLRVC-OH; disulfide 1-20, 7-12 (inferred); N-terminus and C-terminus assumed) | 64 | 64 | 64 | 4 | 8 | 8 | 2.9 | – | – |
| CC(C)C[C@@H]1NC(=O)[C@H](CCCNC(=N)N)NC(=O)[C@H](C(C)C)NC(=O)[C@H](CCCCN)NC(=O)[C@H](CCCNC(=N)N)NC(=O)[C@H](CCCNC(=N)N)NC(=O)[C@H](CCCNC(=N)N)NC(=O)[C@H](CCCNC(=N)N)NC(=O)[C@H](CCCNC(=N)N)NC(=O)[C@H](CC(C)C)NC(=O)[C@H](CCCNC(=N)N)NC(=O)[C@H](C(C)C)NC(=O)[C@H](CCCNC(=N)N)NC(=O)[C@@H](N)CSSC[C@@H](C(=O)O)NC(=O)[C@H](CCCNC(=N)N)NC1=O [SySA-5.25] (H-CRVRLRRRRRKVRLRC-OH; disulfide 1-16) | – | – | – | – | – | – | 1.5 | > 128 | 32 |
| CC(C)C[C@@H]1NC(=O)[C@H](CO)NC(=O)[C@H](C(C)C)NC(=O)[C@@H]2CSSC[C@H](NC(=O)[C@H](CC(C)C)NC(=O)[C@H](CCCNC(=N)N)NC(=O)[C@H](C(C)C)NC(=O)[C@H](CCCNC(=N)N)NC(=O)[C@H](CC(C)C)NC(=O)[C@@H](N)CSSC[C@@H](C(=O)O)NC(=O)[C@H](C(C)C)NC(=O)[C@H](CCCNC(=N)N)NC1=O)C(=O)N[C@@H](CCCNC(=N)N)C(=O)N[C@@H](CCCNC(=N)N)C(=O)NCC(=O)N[C@@H](CCCNC(=N)N)C(=O)N2 [SySA-5.13] (H-CLRVRLCRRGRCVSLRVC-OH; disulfide 1-18, 7-12 (inferred); N-terminus and C-terminus assumed) | >128 | >128 | >128 | 32 | 8 | 16 | 3.2 | – | – |
| CC(C)C[C@@H]1NC(=O)[C@H](CCCNC(=N)N)NC(=O)[C@H](C(C)C)NC(=O)[C@@H]2CSSC[C@H](NC(=O)[C@H](CC(C)C)NC(=O)[C@H](CCCNC(=N)N)NC(=O)[C@H](C(C)C)NC(=O)[C@H](CCCNC(=N)N)NC(=O)[C@@H](N)CSSC[C@@H](C(=O)O)NC(=O)[C@H](CCCNC(=N)N)NC1=O)C(=O)N[C@@H](CCCNC(=N)N)C(=O)N[C@@H](CCCNC(=N)N)C(=O)N[C@@H](CCCNC(=N)N)C(=O)N[C@@H](CCCNC(=N)N)C(=O)N2 [SySA-5.26] (H-CRVRLCRRRRCVRLRC-OH; disulfide 1-16, 6-11 (inferred); N-terminus and C-terminus assumed) | >128 | >128 | >128 | 8 | 8 | 8 | 0.8 | – | – |
| CC(C)C[C@@H]1NC(=O)[C@H](CCCNC(=N)N)NC(=O)[C@H](C(C)C)NC(=O)[C@H](CCCNC(=N)N)NC(=O)[C@H](CC(C)C)NC(=O)[C@@H](N)CSSC[C@@H](C(=O)O)NC(=O)[C@H](C(C)C)NC(=O)[C@H](CCCNC(=N)N)NC(=O)[C@H](CC(C)C)NC(=O)[C@H](CCCNC(=N)N)NC(=O)[C@H](C(C)C)NC(=O)[C@H](CCCCN)NC(=O)[C@H](C(C)C)NC(=O)[C@@H]2CSSC[C@H](NC1=O)C(=O)N[C@@H](CC(N)=O)C(=O)N[C@@H](CCCNC(=N)N)C(=O)N[C@@H](CCCNC(=N)N)C(=O)N[C@@H](CCCNC(=N)N)C(=O)N2 [SySA-5.3] (H-CLRVRLCNRRRCVKVRLRVC-OH; disulfide 1-20, 7-12 (inferred); N-terminus and C-terminus assumed) | 128 | 128 | 128 | 8 | 8 | 8 | 1.8 | – | – |
| CC(C)C[C@@H]1NC(=O)[C@H](CO)NC(=O)[C@H](C(C)C)NC(=O)[C@H](CCCCN)NC(=O)[C@@H]2CSSC[C@H](NC(=O)[C@H](CC(N)=O)NC(=O)[C@H](CC(C)C)NC(=O)[C@H](CCCNC(=N)N)NC(=O)[C@H](C(C)C)NC(=O)[C@H](CCCNC(=N)N)NC(=O)[C@@H](N)CSSC[C@@H](C(=O)O)NC(=O)[C@H](CCC(N)=O)NC1=O)C(=O)N[C@@H](CCCNC(=N)N)C(=O)N[C@@H](CCCNC(=N)N)C(=O)NCC(=O)N[C@@H](CCCNC(=N)N)C(=O)N2 [SySA-5.15] (H-CRVRLNCRRGRCKVSLQC-OH; disulfide 1-18, 7-12 (inferred); N-terminus and C-terminus assumed) | >128 | >128 | >128 | 16 | 16 | 16 | 1.3 | – | – |
